Reference: patent US6469013B2, “Therapeutic compounds” (Parker Hughes Institute, priority 1998, dated 2002)

Tested on: HaCaT human epidermal cells
Test: UVB-induced PGE2 release (EIA)
Type: cell-based
Conditions: light or radiation study, UVB 25 mj/cm^2, 6 h, read-out: inhibition in UVB light induced prostaglandin release
Description: HaCaT, which is a spontaneously transformed human epidermal cell line (16) was maintained in Dulbecco's modified Eagle's medium (DMEM) supplemented with 10% fetal bovine serum (Summit Biotech, Ft. Collins, Colo.).
A bank of 8-FSX24T12/HO/UVB lamps (National Biological Corporation, Twinsburg, Ohio) that emits light predominantly in the UVB range, 280-320 nm was used to irradiate mice and cell cultures. The irradiance of UVB lamps was always measured before irradiation using a UVB meter (model—500C obtained from National Biological Corporation, Twinsburg, Ohio). The dose of UVB light used to irradiate cultures was 25 mj/cm^2. Anesthetized mice received UVB radiations to a 2.0 cm^2 area on their dorsal surface. […]
Confluent HaCaT cells cultured in 24-well culture dishes were washed three times with serum-free DMEM containing 1% bovine serum albumin (BSA) (Cayman chemicals, Ann Arbor, Mich.) and incubated with 3-30 μM compound compound 6 for 1 hour at 37° C. After incubation the cells were washed twice with PBS, and either exposed to 25 mj/cm^2 UVB light or stimulated with 50 ng/ml rhEGF, and fed with serum-free DMEM containing 1% BSA. compound 6 was readministered and the cells were incubated for 6 h at 37° C. […] Cellular protein was determined using the Pierce's BCA protein assay method (Smith, P. K., et al., 1985, Anal Biochem. 150 (1):76-85).

## COc1cc2ncnc(Nc3ccc(O)cc3)c2cc1OC [WHI-P131, 4-(4′-hydroxyl-phenyl)-amino-6,7-dimethoxyquinazoline]
  inhibition at 30 µM: ~90%
